# Assay results: patent US20120237566A1, “INHIBITING STOMACH-ACID RELEASE, REDUCING INFLAMMATION AND PREVENTING AND TREATING CANCER: COMPOSITIONS AND METHODS OF USE” (Venture Isles, LLC, priority 2011, published 2012)
# Entries after “also recorded” stand apart in the source; their conditions may differ. Read-outs that look alike come from different tables or passages of the source.
# Tests used:
# high-affinity K site = high-affinity K site (Homo sapiens, UniProt P20648); conditions: cited from earlier work
# [1] = tested on: chambered bull frog gastric mucosa; conditions: cited from earlier work
# [2] = tested on: gastric microsomal K-pNPPase; assay: K-pNPPase activity of gastric microsomes; type: biochemical
# Na—K-ATPase = conditions: cited from earlier work
# H, K-ATPase = H, K-ATPase (Homo sapiens, UniProt P20648); conditions: cited from earlier work
# mitosis = conditions: cited from earlier work
# activated neutrophils = conditions: micromolar EGCG; cited from earlier work
# neutrophil chemotaxis = conditions: in vitro; cited from earlier work
# [3] = tested on: neutrophil-mediated angiogenesis; conditions: oral; in vivo; cited from earlier work
# neutrophil elastase = molecular target: T1, neutrophil elastase (Homo sapiens, UniProt P08246); conditions: cited from earlier work
# T1 sequence (P08246 30-267): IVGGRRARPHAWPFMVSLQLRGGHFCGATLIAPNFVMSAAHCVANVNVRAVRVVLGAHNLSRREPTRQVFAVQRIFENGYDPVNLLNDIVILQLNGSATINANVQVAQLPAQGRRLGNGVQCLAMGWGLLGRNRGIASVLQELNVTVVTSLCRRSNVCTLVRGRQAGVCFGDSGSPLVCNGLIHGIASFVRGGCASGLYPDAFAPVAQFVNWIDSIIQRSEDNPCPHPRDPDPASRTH
# [4] = tested on: chambered bull frog gastric mucosa; assay: acid secretion by chambered bull frog gastric mucosa in vitro; type: cell-based
# Description: The method further comprises Step 2 that includes testing to determine if a candidate molecule inhibits the H, K-ATPase activity (inhibits the pump turnover), then test in an appropriate animal model(s) for the antisecretary activity and select the best candidates for clinical trial, as in Step 6.
# (§1) Heavy-metal ions generally comprise Ba, Ca, and Zn and show synergistic inhibition when used in combination with thiocyanate and isothiocyanate. Zinc (Zn) inhibits acid secretion by a mechanism quite different than Barium and Calcium.
# However, SCN and ZN include different modes of operation.
# gastric H, K-ATPase [5] = assay: H, K-ATPase activity of isolated gastric microsomal vesicles; type: biochemical
# Description: as §1
# [6] = tested on: inducible nitric oxide synthase (iNOS); conditions: activated macrophages; cited from earlier work
# [7] = tested on: AP-1 mediated transcription; conditions: in vitro; cited from earlier work
# lipoxygenase = conditions: cited from earlier work
# [8] = molecular target: highly purified H, K-ATPase (Homo sapiens, UniProt P20648); conditions: cited from earlier work
# gastric H, K-ATPase [9] = conditions: cited from earlier work
# highly purified H, K-ATPase, sequence (P20648 whole entry): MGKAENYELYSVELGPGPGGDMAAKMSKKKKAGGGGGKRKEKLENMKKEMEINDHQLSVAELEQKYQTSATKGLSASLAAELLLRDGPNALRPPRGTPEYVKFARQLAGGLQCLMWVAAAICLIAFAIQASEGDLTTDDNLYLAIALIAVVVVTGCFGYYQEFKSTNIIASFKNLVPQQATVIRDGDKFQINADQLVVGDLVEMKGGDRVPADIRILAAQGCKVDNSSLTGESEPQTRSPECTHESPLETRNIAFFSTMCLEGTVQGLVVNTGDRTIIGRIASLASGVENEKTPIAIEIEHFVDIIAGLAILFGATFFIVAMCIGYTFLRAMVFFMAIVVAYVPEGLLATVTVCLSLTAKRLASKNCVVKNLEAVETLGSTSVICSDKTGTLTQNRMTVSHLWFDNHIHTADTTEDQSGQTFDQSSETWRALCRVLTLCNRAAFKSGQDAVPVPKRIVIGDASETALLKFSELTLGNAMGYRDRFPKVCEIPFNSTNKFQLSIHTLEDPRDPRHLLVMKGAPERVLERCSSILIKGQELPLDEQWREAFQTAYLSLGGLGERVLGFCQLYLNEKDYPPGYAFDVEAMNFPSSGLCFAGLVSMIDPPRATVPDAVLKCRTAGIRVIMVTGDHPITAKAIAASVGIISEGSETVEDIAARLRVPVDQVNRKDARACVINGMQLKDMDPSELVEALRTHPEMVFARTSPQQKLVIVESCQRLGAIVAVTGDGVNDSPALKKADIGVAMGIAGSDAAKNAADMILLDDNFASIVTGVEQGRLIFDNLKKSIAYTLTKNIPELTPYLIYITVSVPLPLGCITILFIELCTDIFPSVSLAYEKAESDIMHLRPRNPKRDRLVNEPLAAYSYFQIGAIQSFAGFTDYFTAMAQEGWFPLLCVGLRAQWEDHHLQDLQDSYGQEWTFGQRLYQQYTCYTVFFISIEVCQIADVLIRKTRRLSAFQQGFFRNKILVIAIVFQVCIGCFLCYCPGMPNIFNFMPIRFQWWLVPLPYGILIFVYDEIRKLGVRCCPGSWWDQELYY
# highly purified H, K-ATPase, sequence (P51164 whole entry partner): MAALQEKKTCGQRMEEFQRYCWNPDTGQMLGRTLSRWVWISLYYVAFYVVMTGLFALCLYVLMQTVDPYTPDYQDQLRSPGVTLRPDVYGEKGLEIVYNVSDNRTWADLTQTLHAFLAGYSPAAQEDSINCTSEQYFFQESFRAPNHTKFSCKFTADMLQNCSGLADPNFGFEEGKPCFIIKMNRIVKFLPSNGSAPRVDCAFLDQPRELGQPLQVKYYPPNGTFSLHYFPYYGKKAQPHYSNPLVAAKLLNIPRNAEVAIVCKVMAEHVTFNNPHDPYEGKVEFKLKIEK
# high-affinity K site, sequence (P20648 whole entry): as the sequence (P20648 whole entry) above
# high-affinity K site, sequence (P51164 whole entry partner): as the sequence (P51164 whole entry partner) above
# H, K-ATPase, sequence (P20648 whole entry): as the sequence (P20648 whole entry) above
# H, K-ATPase, sequence (P51164 whole entry partner): as the sequence (P51164 whole entry partner) above
compound,measurement,setting,value
"2-[3,4]-dichlorophenylamino quinolizium bromide [nolinium bromide]",interaction with the high-affinity K site,high-affinity K site,interacts competitively
[Ba+2] [Barium],reversal of inhibition of acid secretion by higher concentration of K,[1],competitively reverses
same,acid secretion,[1]; higher concentration (above 1 mM),blocks the acid secretion
same,acid secretion,[1]; less than 1 mM concentration,slight stimulation
same,"K-pNPPase activity, antagonism with K",[2],parallel Ba/K antagonism
"Clc1ccccc1C(c1ccccc1)(c1ccccc1)n1ccnc1 [CLT, clotrimazole]",inhibition of Na—K-ATPase,Na—K-ATPase,potent inhibitors
same,"inhibition of H, K-ATPase","H, K-ATPase",potent inhibitors
[Ca+2] [Calcium],response of K-pNPPase inhibition to higher K,[2],nonresponsive to higher K
same,K-pNPPase activity,[2]; concentrations comparable to Ba,strong inhibition
"N#CSc1ccc(Cl)cc1Cl [DCPT, 2,4-dichlorophenyl thiocyanate]",anti-proliferative / antimitotic activity,mitosis,anti-proliferative property; also recorded: antimitotic
"O=C(O[C@@H]1Cc2c(O)cc(O)cc2O[C@@H]1c1cc(O)c(O)c(O)c1)c1cc(O)c(O)c(O)c1 [EGCG, (−)epigallocatechin-3-gallate]",apoptosis of activated neutrophils,activated neutrophils,inhibits
same,reactive oxygen species activity,activated neutrophils,represses
same,chemokine-induced neutrophil chemotaxis,neutrophil chemotaxis,dramatically inhibits
same,neutrophil-mediated angiogenesis,[3],block
same,neutrophil elastase inhibition,neutrophil elastase,strongly inhibits
Cc1nc2c(OCc3ccccc3)cccn2c1CC#N [SCH 28080],interaction with the high-affinity K site,high-affinity K site,interacts competitively
"[Zn+2] [Zn, Zinc]",inhibition of gastric-acid secretion,[4],potent inhibitors
same,reversal of inhibition of acid secretion by beta-mercaptoehanol (βME) in the secretary solution,[4],could be reversed
same,reversal of inhibition of gastric acid secretion by raising K-salt in the bathing medium,[4],totally ineffective
same,restoration of acid secretion after Zn inhibition,[4]; 1 mM beta-mercapto-ehanol (βME),promptly restored
same,acid secretion,"[4]; at a concentration of 60 added to the secretary solution, within 15 min",reduces the acid secretion to near zero
same,activity of the isolated pNPPase,[2],strongly inhibited
same,K-pNPPase activity,[2]; 20 μM,abolishes
same,"activity of the isolated H, K-ATPase","gastric H, K-ATPase [5]",strongly inhibited
same,"H, K-ATPase activity","gastric H, K-ATPase [5]; 2 μM",abolished
same,"H, K-ATPase activity","gastric H, K-ATPase [5]; 2 μM, listed as Zinc",abolishes
same,"sensitivity of H, K-ATPase activity relative to pNPPase activity","gastric H, K-ATPase [5]; inhibition by Zn",ten times more sensitive
"COc1cc(C=CC(=O)CC(=O)C=Cc2ccc(O)c(OC)c2)ccc1O [curcumin, 1,7-bis(4-hydroxy-3-methoxyphenyl)-1,6-heptadiene-3,5-dione]",inducible nitric oxide synthase (iNOS),[6],suppresses
same,AP-1 mediated transcription related to cytokine regulation,[7],inhibits
same,lipoxygenase inhibition,lipoxygenase,inhibits
"N#C[S-].[Na+] [thiocyanate, Sodium thiocyanate]",gastric H transport,[1],potent inhibitor
same,inhibition of gastric-acid secretion,[4],potent inhibitors
same,reversal of inhibition of gastric acid secretion by raising K-salt in the bathing medium,[4],can be reversed
same,reversal of K-pNPPase inhibition by high K,[2],reversed by high K
same,K-pNPPase activity,[2]; 10 mM,abolished
same,"binding to purified H, K-ATPase",[8],specific binding
same,displacement of bound SCN by K,[8],could be displaced by K
same,"binding to purified H, K-ATPase",[8]; listed as SCN,binding to a specific site
same,"H, K-ATPase mediated hydrolysis of ATP (ATPase activity)","gastric H, K-ATPase [9]",does not inhibit
same,"H, K-ATPase activity","gastric H, K-ATPase [5]; 10 mM",totally ineffective
